The values that follow come from patent US7514254B2, “Plant-derived alkaline alpha-galactosidase” (The State of Israel, Ministry of Agriculture & Rural …, priority 1998, dated 2009).

The structures appear in SMILES notation. “Also recorded” adds a separate entry of the source.

Assay type in all cases: biochemical, muskmelon (Cucumis melo L. cv C-8)
The target in assay [1] is T1, melon (Cucumis melo) fruit alkaline alpha-galactosidase Form II (Cucumis melo, UniProt Q84NI6).
T1 construct: native 102 kDa, denatured 92 kDa; assayed at pH 7.5
T1 sequence (Q84NI6 1-772): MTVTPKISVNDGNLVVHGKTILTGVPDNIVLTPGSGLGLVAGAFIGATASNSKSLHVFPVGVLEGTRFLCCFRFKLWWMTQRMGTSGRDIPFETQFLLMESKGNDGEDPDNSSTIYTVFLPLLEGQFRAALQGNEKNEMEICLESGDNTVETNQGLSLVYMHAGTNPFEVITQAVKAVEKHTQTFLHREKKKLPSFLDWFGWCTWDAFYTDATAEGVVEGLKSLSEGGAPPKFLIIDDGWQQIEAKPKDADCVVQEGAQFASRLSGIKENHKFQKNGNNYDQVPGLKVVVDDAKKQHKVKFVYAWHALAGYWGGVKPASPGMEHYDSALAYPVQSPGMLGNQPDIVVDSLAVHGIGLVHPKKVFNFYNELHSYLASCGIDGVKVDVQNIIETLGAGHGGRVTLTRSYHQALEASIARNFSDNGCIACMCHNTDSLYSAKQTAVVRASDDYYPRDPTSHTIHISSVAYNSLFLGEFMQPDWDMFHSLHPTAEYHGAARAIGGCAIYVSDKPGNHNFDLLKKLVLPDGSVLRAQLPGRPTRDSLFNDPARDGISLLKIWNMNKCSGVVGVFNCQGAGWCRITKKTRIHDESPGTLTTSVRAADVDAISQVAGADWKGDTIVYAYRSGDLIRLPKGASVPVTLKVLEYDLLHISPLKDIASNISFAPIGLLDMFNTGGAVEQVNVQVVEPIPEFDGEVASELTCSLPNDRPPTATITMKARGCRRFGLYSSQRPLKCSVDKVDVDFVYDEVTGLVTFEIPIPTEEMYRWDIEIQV
The assay is described as follows: Substrate kinetics (Lineweaver-Burk) of alkaline alpha-galactosidase Form II. The protocol: (§1) For routine analysis and monitoring the activity in the purification steps, alpha-galactosidase was assayed as described by Smart and Pharr (“Characterization of alpha-galactosidase from cucumber leaves”, Plant Physiology, 66:731-734, 1980), using p-nitrophenyl alpha-galactoside (pNPG) as substrate. Reaction was initiated by adding 50 μl enzyme aliquot to either 200 μl 100 mM pH 5.5 McIlvaine buffer or 100 mM pH 7.5 HEPES buffer, containing 5 mM pNPG at 35 C. The reaction was terminated after 10 min by adding 1 ml of 5% (w/v) Na2CO3 and activity expressed as nmol nitrophenol per min as measured at 410 nm. […] The assay was started by adding 50 μl enzyme preparation at 35 C and terminated after 10 to 20 min by 2 min boiling.
The fractions from the DEAE-Sepharose chromatography which were active at pH 7.5 were pooled and dialyzed against buffer A for 12 h prior to loading onto an HPLC ion exchange chromatography column (Mono-Q HR 5/5, Pharmacia, Uppsala, Sweden), previously equilibrated with buffer A. Bound proteins were eluted with a linear gradient of 0.1 to 0.45 M NaCl and the active fractions were detected using pNPG as substrate at pH 7.5 as described above. […] For the further purification of Form II the active fractions of the peak II were chromatographed on hydrophobic interaction chromatography. The fractions were pooled, brought to 1 M (NH4)2SO4 and loaded on to a hydrophobic interaction column (phenyl-Sepharose CL-4B, 0.5×12 cm, Pharmacia, Uppsala, Sweden) previously equilibrated with buffer A containing 1 M (NH4)2SO4. The protein was eluted with a reverse stepwise gradient from 1 to 0 M (NH4)2SO4 with 50 mM intervals in buffer A. Fractions containing the activity peak were collected and dialyzed for 12 h against buffer A and the dialysate was concentrated by reverse dialysis against solid sucrose. The enzyme, partially purified by hydrophobic interaction chromatography, was used for the characterization of Form II. The active fractions from the hydrophobic interaction column were further purified. Active fractions were separated electrophoretically using a Mini Prep Cell (Bio-Rad Laboratories, Hercules, Calif.) for discontinuous native-PAGE with 7% polyacrylamide, according to manufacturer's instructions. Fractions (0.25 ml/fraction) were assayed at pH 7.5 with pNPG as substrate for the activity. The active fractions were pooled, concentrated by Vivaspin Concentrator (Vivascience LTD, Lincoln, England), and run in a 8% SDS-PAGE. Proteins in the SDS-PAGE were identified using Coomassie Blue staining.

Assay [2] deals with melon (Cucumis melo) fruit acid form alpha-galactosidase. The assay is described as follows: Inhibition of acid alpha-galactosidase by alternative substrate (galactose release). The settings on record: 80 mM stachyose added to 10 mM raffinose. The protocol: For routine analysis and monitoring the activity in the purification steps, alpha-galactosidase was assayed as described by Smart and Pharr (“Characterization of alpha-galactosidase from cucumber leaves”, Plant Physiology, 66:731-734, 1980), using p-nitrophenyl alpha-galactoside (pNPG) as substrate. […] The reaction was terminated after 10 min by adding 1 ml of 5% (w/v) Na2CO3 and activity expressed as nmol nitrophenol per min as measured at 410 nm. […] The substrate specificity of the alpha-galactosidases was tested with pNPG, stachyose, raffinose, melibiose or guar gum (Sigma).

For assay [3], the target named is T2, melon (Cucumis melo) fruit alkaline alpha-galactosidase Form I (Cucumis melo, UniProt Q84NI7).
T2 sequence (Q84NI7 1-754): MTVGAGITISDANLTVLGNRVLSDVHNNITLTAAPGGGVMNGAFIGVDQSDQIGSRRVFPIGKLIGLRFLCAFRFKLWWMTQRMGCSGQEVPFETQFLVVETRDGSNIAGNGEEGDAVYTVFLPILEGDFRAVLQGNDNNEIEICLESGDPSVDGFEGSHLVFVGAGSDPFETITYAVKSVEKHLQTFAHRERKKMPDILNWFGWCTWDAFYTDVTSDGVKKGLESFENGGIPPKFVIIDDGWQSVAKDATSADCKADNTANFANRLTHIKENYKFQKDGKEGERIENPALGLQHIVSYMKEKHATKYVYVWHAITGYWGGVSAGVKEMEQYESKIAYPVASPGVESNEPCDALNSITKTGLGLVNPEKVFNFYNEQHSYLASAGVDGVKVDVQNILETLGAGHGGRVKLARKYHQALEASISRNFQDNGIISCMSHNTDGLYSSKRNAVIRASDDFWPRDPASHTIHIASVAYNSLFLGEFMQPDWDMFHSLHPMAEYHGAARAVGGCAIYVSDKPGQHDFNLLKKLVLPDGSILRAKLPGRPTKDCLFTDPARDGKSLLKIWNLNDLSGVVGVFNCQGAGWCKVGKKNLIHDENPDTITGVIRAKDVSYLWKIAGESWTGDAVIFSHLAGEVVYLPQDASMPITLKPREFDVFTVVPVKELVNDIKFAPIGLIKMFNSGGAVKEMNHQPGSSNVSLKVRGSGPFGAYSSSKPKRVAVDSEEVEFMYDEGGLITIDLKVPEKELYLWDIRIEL
Nature of the assay: Inhibition of alkaline alpha-galactosidase Form I by alternative substrate (galactose release). Details: native 84 kDa, denatured 79 kDa; assayed at pH 7.5. The protocol: as §1

In the case of `OC[C@H]1O[C@H](OC[C@H]2O[C@H](OC[C@H]3O[C@H](O[C@]4(CO)O[C@H](CO)[C@@H](O)[C@@H]4O)[C@H](O)[C@@H](O)[C@@H]3O)[C@H](O)[C@@H](O)[C@H]2O)[C@H](O)[C@@H](O)[C@H]1O` [Stachyose, O-alpha-D-galactopyranosyl-(1-6)-O-alpha-D-galactopyranosyl-(1-6)-O-alpha-D-glucopyranosyl-(1-2)-beta-D-fructofuranoside], the Vmax/Km ratio in assay [1] came to 0.61. The Vmax in assay [1] (Lineweaver-Burk) was determined as 2.2 μmol mg^−1 protein min^−1. Also, the “inhibition by excess stachyose (free galactose release)” value in assay [2] was found to be 45%. In addition, the “inhibition by excess stachyose (free galactose release, in words)” value in assay [3] is on record as “negligible; also recorded: does not decrease”.
